# Results taken from patent US5719129A, “Derivative of caffeic acid, oraposide, and cosmetic or pharmaceutical compositions, in particular dermatological compositions, containing it” (priority 1993, dated 1998).
# Assays:
# [1] = system: micromycete contaminants commonly found in foodstuffs; test: Antifungal activity against micromycete contaminants of foodstuffs (25 species); format: cell-based; parameters: Strains whose growth was inhibited or diminished: concentration or dose not given beside the values; conditions: 25 species of fungi
# Method: (§1) It is known that a number of caffeic acid derivatives inhibit the growth of bacteria and fungi. This property has been confirmed for oraposide with 40 different strains belonging to 10 genera of bacteria, and 25 different strains belonging to 25 species of fungi.
# Antifungal activity was tested in relation to micromycete contaminants commonly found in foodstuffs. The test was performed with 25 species belonging to the Adelomycetes (e.g. Alternaria tenuis, Fusarium avenceum, Geotricom candidum, etc.), Mucorales (e.g. Mucor mucedo, Cunninghamella elegans, Rhizopus nigricans, etc.), Endomycetes (e.g. Candida lipolytica, Saccharomyces cerevisiae, etc.), Plectomycetes (e.g. Aspergillus clavatus, A. niger, Penicillium chrysogenum, P. rubturm, etc.), and Pyrenomycetes (e.g. Chaetomium globosum, Sordaria himicola, etc.).
# rabbit liver microsomes = test: Lipoperoxidation inhibition in liver microsomes (malonyl dialdehyde formation); format: biochemical
# Method: Verbascoside, oraposide and arenarioside are heteroside esters of caffeic acid and the acids cited are other esters of caffeic acid.
# A lipoperoxidation reaction takes place when rabbit liver microsomes are incubated in the presence of NADPH.
# The microsomes were recovered from the processing of hepatocytes with ultrasound.
# Lipoperoxidation was evaluated through the formation of malonyl dialdehyde in accordance with the method by Placer et al., 1966 (Analyt. Biochem. 16,359-364).
# The reaction was performed in the absence of (control) and in the presence of caffeic acid or oraposide in a concentration of 5.10^-5 M or in the presence of α-tocopherol (Sigma) at 5.10^-5 M (known inhibiting activity reference).
# [2] = UV absorption of oraposide compared with sunscreen filters (integration of UVB and UVA peak surface areas); format: physicochemical
# Source text: Integration of the surface areas of the UVB peaks can be used to compare oraposide with Parsol MCX®, from which it can be seen that the UVB absorption activity of oraposide is 0.4 times that of Parsol MCX®. If the surface area of the UVA peak of oraposide is integrated and compared with Parsol 1 789®, it will be seen that the UVA absorption of oraposide is approximately 0.2 times that of Parsol 1 789®.
# A.R. - Rat lens = target: T1, A.R. - Rat lens (Rattus norvegicus, UniProt P07943); test: Inhibition of aldose reductase, rat lens; format: biochemical
# T1 construct: crude enzyme extract isolated from lenses freshly obtained from bovines and rats; from tissue; host or cells: rat lens, crude enzyme extract
# Method: (§2) Enzyme inhibition was evaluated in vitro using a crude enzyme extract isolated from lenses freshly obtained from bovines and rats. The principle of the reaction is as follows: [drawing 3]
# (§3) This reaction takes place at PH=6.2 at ambient temperature and extinctions were measured at 340 nm. The molecules tested were dissolved in twice-distilled water.
# [3] = system: tremor caused by a tremor-inducing factor; test: Antitremor activity in association with L-dopa against a tremor-inducing factor, in animals and in man; format: in vivo; conditions: associated with L-dopa
# Source text: (§4) In accordance with a particular embodiment of the invention within the context of antitremor treatment, in particular in Parkinson's disease, the composition according to the aforesaid invention also contains a therapeutically effective amount of L-dopa. In fat oraposide and its derivatives of formula I aforesaid have a potentiating activity for L-dopa in its antitremor activity, which is effective in particular in Parkinson's disease. Oraposide and its derivatives of formula I aforesaid associated with L-dopa in fact experimentally reduce tremor caused by a tremor-inducing factor in animals and in man. In Parkinson's disease an improvement in abnormal movements (of the choreic type) and other secondary disturbances due to treatment with L-dopa is found.
# bacterial strains = test: Antibacterial effect, 40 strains belonging to 10 genera of bacteria; format: cell-based; conditions: doses of 0.5 mg/ml and above
# Source text: as §1
# The bacterial strains tested were: Staphylococcus aureus, Streptococcus (group A and group D), Escherichia coli, Klebsiella pneumoniae, Proteus sp., Providentia sp., Serratia marcescens, Enterobacter cloacae, Pseudomonas aeruginosa, Salmonella (S. typhi and S. para-typhi).
# human keratinocytes [4] = test: Anti-free-radical activity in keratinocyte cultures (MDA production); format: cell-based; conditions: for inhibition at 100 µM: Homo sapiens, Keratinocyte, 2 h, 2 hours incubation, mean of 3 measurements
# Method: The anti-free-radical activity of oraposide was investigated on a line of human keratinocytes in culture, in comparison with well known anti-free-radical agents.
# The protective activity of the anti-free-radical agent was evaluated by measuring malonaldehyde (MDA) in the culture medium (reflecting the lipoperoxidation of cell membrane lipids) after the cells had been brought into contact with a source of oxygenated free radicals (after the method of Z. A. Placer et al., 1966, Anal. Biochem. 16, 359-64, reference cited above).
# Cells: human keratinocytes from a squamous carcinoma.
# One week after seeding the merged single layer of cells was processed with […] of a solution containing an oxygenated radical generator consisting of vitamin C 10^-3 M, FeCl3 10^-4 M, FeSO4 10^-4 M in pH 8 PBS buffer to which the molecule being tested was added (=reaction medium).
# After incubation at 37° C. for 2 hours this incubation medium was recovered for the determination of MDA.
# After 2 hours incubation with the cells the 500 μl of reaction medium was sampled and thiobarbituric acid was added in order to determine MDA at 532 nm.
# The results are stated as % inhibition of MDA production.
# The investigation was performed at a concentration of 100 μM for the 3 materials after 2 hours incubation with the reaction mixture. The MDA produced, determined by spectrophotometry, provided results which are expressed as % inhibition of this production in comparison with the controls (reaction medium alone).
# aldose reductase = test: Inhibition of aldose reductase, comparison in the conclusion (species not given); format: biochemical; conditions: value given in conclusion, species not specified; read-out: IC 50 (conclusion)
# Source text: The four molecules inhibit aldose reductase from both cattle and rats.
# rabbit hepatocytes [5] = test: LDH release by hepatocytes in primary culture intoxicated with chloroform; format: cell-based; conditions: oraposide 5.10^-5 M; chloroform 10^-4 M; 3, 7 and 24 hours (FIG. 2)
# Source text: As in FIG. 1, reference 1 indicates the results obtained with untreated cultures, reference 2 the results obtained with cultures treated with 10^-4 M chloroform, and reference 3 the results obtained with cultures treated with a combination of 10^-4 M chloroform and oraposide in a concentration of 5.10^-5 M. Chloroform is also a hepatotoxic agent.
# (§5) The experimental model selected was investigation of the release of lactate dehydrogenase (LDH) by rabbit hepatocytes in primary culture, this LDH release representing a marker of hepatocyte deterioration.
# (§6) The hepatocytes were deliberately intoxicated with nitroxynil (10^-4 to 10^-5 M) or chloroform (10^-3 to 10^-5 M) .
# (§7) The effect of oraposide was evaluated for a final concentration of 0.05 mM in the culture medium.
# rabbit hepatocytes [6] = test: Cell toxicity of oraposide itself on hepatocytes; format: cell-based; conditions: even at a concentration of 100 μM
# Source text: as §5
# human keratinocytes [7] = test: Cytotoxicity in keratinocyte culture (LDH release); conditions: for cytotoxicity (in words) / % increase in OD with respect to the control (+DMSO), D1 / % increase in OD with respect to the control (+DMSO), D2 / % increase in OD with respect to the control (+DMSO), D3: 200 μM; for cytotoxicity (in words): LDH release; for % increase in OD with respect to the control (+DMSO), D1: day 1, mean of 3 measurements; for % increase in OD with respect to the control (+DMSO), D2: day 2, mean of 3 measurements; for % increase in OD with respect to the control (+DMSO), D3: day 3, mean of 3 measurements
# Method: Culture medium: DMEM (1/2), HAM F12 (1/2) basic medium (from the Gibco company), with added 5% foetal calf serum (from the Intermed company).
# Cultures were prepared in 60 mm petri dishes (NUNC), seeding density: 5000 cells per cm^2.
# The compounds were tested in solution in DMSO at 200 μM, the control cultures containing an identical amount of solvent.
# The amount of LDH released into the culture medium after daily treatment with anti-free-radical molecules was determined after 24 hours and then for 6 days.
# The supernatant from the culture was contacted with sodium pyruvate and NADH, and the kinetics of LDH activity were measured spectrophotometrically (Boehringer kit).
# Staphylococcus aureus = test: Antibacterial effect, 29 strains of Staphylococcus aureus; format: cell-based
# rabbit hepatocytes [8] = test: LDH release by hepatocytes in primary culture intoxicated with nitroxynil; format: cell-based; conditions: oraposide 5.10^-5 M (0.05 mM); nitroxynil 10^-4 M; 3 and 7 hours (FIG. 1)
# Source text: Reference 1 in the two blocks of histograms indicates the results obtained with untreated cultures, acting as controls, reference 2 indicates histogram blocks obtained using cultures treated with nitroxynil at a concentration of 10^-4 M, reference 3 indicates histogram blocks obtained with cultures treated with nitroxynil in a concentration of 10^-4 M and verbascoside in a concentration of 5.10 ^-5 M, reference 4 indicates histogram blocks obtained with cultures treated with nitroxynil in a concentration of 10^-4 M and oraposide in a concentration of 5.10^-5 M, and reference 5 indicates histogram blocks obtained with cultures treated with nitroxynil in a concentration of 10^-4 M and arenarioside in a concentration of 5.10^-5 M. Nitroxynil is a hepatotoxic agent, verbascoside and arenarioside are other heteroside esters of caffeic acid which are known to those skilled in the art.
# as §5, §6, §7
# A.R. calf lens = target: T2, A.R. calf lens (Bos taurus, UniProt P16116); test: Inhibition of aldose reductase, calf lens; format: biochemical, bovine (calf)
# T2 construct: crude enzyme extract isolated from lenses freshly obtained from bovines and rats; from tissue; host or cells: calf (bovine) lens, crude enzyme extract
# Method: as §2, §3
# The aldose reductase inhibiting activity of the various heteroside caffeic esters (1) and (2) correspond to two different series of experiments.
# Parkinson's disease = test: Effect in Parkinson's disease on abnormal movements and secondary disturbances due to treatment with L-dopa; format: in vivo; conditions: associated with L-dopa
# Source text: as §4
# [9] = 5.10^-5 M, microsomes with NADPH (FIG. 3)
smiles,measurement,setting,value
"O=C(O)/C=C/c1ccc(O)c(O)c1 [Caffeic acid, 3,4-dihydroxycinnamic acid]",Strains whose growth was inhibited or diminished,[1],83%
same,Strains whose growth was inhibited by an MIC <10 mg/ml,[1],52%
same,inhibition of lipoperoxidation (in words),rabbit liver microsomes; [9],equivalent inhibiting activity
"CC1OC(OC2C(OC(=O)C=Cc3ccc(O)c(O)c3)C(CO)OC3OCC(c4ccc(O)c(O)c4)OC32)C(O)C(O)C1O [Oraposide, 3-0-(α-L-rhamnopyranosyl)-[2-(3,4-dihydroxyphenyl)-1,2-ethylidene]-β-D-glucopyranoside 4-caffeate]",Strains whose growth was inhibited or diminished,[1],92%
same,Strains whose growth was inhibited by an MIC <10 mg/ml,[1],64%
same,UVA absorption relative to Parsol 1 789,"[2]; surface area of UVA peak, vs Parsol 1 789",approximately 0.2 times
same,UVB absorption activity relative to Parsol MCX,"[2]; surface area of UVB peak, vs Parsol MCX",0.4 times
same,IC50,A.R. - Rat lens,220 nM
same,tremor caused by a tremor-inducing factor,[3],reduce tremor
same,inhibition of all bacterial strains,bacterial strains,100%
same,protective power / anti-free-radical activity (in words),human keratinocytes [4]; 100 μM,"equally effective as BHT, but less effective than α-tocopherol"
same,inhibition at 100 µM,human keratinocytes [4]; 1st experiment,70 ± 3%
same,inhibition at 100 µM,human keratinocytes [4]; 2nd experiment,60 ± 15%
same,inhibition of lipoperoxidation,rabbit liver microsomes; [9],100%
same,inhibition of lipoperoxidation (in words),rabbit liver microsomes; [9],stronger inhibition
same,inhibition of lipid oxidation potentiated by CCl4,rabbit liver microsomes; free radical generator CCl4,100%
same,inhibition of lipid oxidation potentiated by H2O2,rabbit liver microsomes; free radical generator H2 O2,90%
same,IC50,"rabbit liver microsomes; read-out: dose required to obtain 50% inhibition of lipoperoxidation, FIG. 4",10000 nM
same,IC50,aldose reductase,160 nM
same,release of LDH by hepatocytes intoxicated with chloroform,rabbit hepatocytes [5],a less clear effect
same,cell toxicity,rabbit hepatocytes [6],no cell toxicity
same,cytotoxicity (in words),human keratinocytes [7],no cytotoxic effect
same,"% increase in OD with respect to the control (+DMSO), D1",human keratinocytes [7],0%
same,"% increase in OD with respect to the control (+DMSO), D2",human keratinocytes [7],0%
same,"% increase in OD with respect to the control (+DMSO), D3",human keratinocytes [7],0%
same,cytotoxic effect up to a concentration of 200 μM,human keratinocytes [7]; up to 200 μM,no cytotoxic effect
same,inhibition at 60 µg/mL,Staphylococcus aureus; 0.06 mg/ml,70%
same,inhibition at 120 µg/mL,Staphylococcus aureus; 0.12 mg/ml,80%
same,release of LDH by hepatocytes intoxicated with nitroxynil,rabbit hepatocytes [8],very significantly reduces the release of LDH
same,IC50,A.R. calf lens; series (1),150 nM
same,IC50,A.R. calf lens; series (2),165 nM
same,abnormal movements (of the choreic type) and other secondary disturbances due to treatment with L-dopa,Parkinson's disease,improvement
O=C(/C=C/c1ccc(O)c(O)c1)O[C@H](Cc1ccc(O)c(O)c1)C(=O)O [Rosmarinic acid],Strains whose growth was inhibited or diminished,[1],100%
same,Strains whose growth was inhibited by an MIC <10 mg/ml,[1],96%
C[C@@H]1OC(O[C@@H]2[C@@H](O)[C@H](OCCc3ccc(O)c(O)c3)O[C@H](CO[C@@H]3OC[C@@H](O)[C@H](O)[C@H]3O)[C@H]2OC(=O)/C=C/c2ccc(O)c(O)c2)[C@H](O)[C@H](O)[C@H]1O (stereo partly shown) [Arenarioside],IC50,A.R. - Rat lens,4180 nM
same,IC50,A.R. calf lens; series (1),2380 nM
same,IC50,A.R. calf lens; series (2),1470 nM
"Cc1c(C)c2c(c(C)c1O)CCC(C)(CCCC(C)CCCC(C)CCCC(C)C)O2 (stereo not drawn) [α-tocopherol, reference compound]",inhibition at 100 µM,human keratinocytes [4],100%
same,inhibition of lipoperoxidation (in words),rabbit liver microsomes; [9],equivalent inhibiting activity
same,cytotoxicity (in words),human keratinocytes [7],less pronounced
same,"% increase in OD with respect to the control (+DMSO), D1",human keratinocytes [7],19 ± 2%
same,"% increase in OD with respect to the control (+DMSO), D2",human keratinocytes [7],83 ± 20%
same,"% increase in OD with respect to the control (+DMSO), D3",human keratinocytes [7],54 ± 8%
O=C(/C=C/c1ccc(O)c(O)c1)O[C@@H]1C[C@](O)(C(=O)O)C[C@@H](O)[C@H]1O [Chlorogenic acid],Strains whose growth was inhibited or diminished,[1],80%
same,Strains whose growth was inhibited by an MIC <10 mg/ml,[1],40%
C[C@@H]1O[C@@H](O[C@@H]2[C@@H](O)[C@H](OCCc3ccc(O)c(O)c3)O[C@H](CO)[C@H]2OC(=O)/C=C/c2ccc(O)c(O)c2)[C@H](O)[C@H](O)[C@H]1O [Verbascoside],Strains whose growth was inhibited or diminished,[1],72%
same,Strains whose growth was inhibited by an MIC <10 mg/ml,[1],44%
same,IC50,A.R. - Rat lens,1780 nM
same,IC50,A.R. calf lens; series (1),1600 nM
same,IC50,A.R. calf lens; series (2),1600 nM
"Cc1cc(C(C)(C)C)c(O)c(C(C)(C)C)c1 [BHT, reference compound]",inhibition at 100 µM,human keratinocytes [4],64 ± 2%
same,cytotoxicity (in words),human keratinocytes [7],high cytotoxicity
